In PubChem BioAssay (NCI):
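How tested: cells in 96-well plates exposed to compound for 48 hours at five concentrations. TGI: total growth inhibition.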

Key:
Assay in all cases: growth of human tumour cells (NCI), 48 h
[1] = system: K-562 leukemia
[2] = system: U251 CNS
[3] = system: 786-0 renal
[4] = system: MDA-N
[5] = system: IGROV1 ovarian
[6] = system: EKVX NSCLC
[7] = system: COLO 205 colon
[8] = system: M14 melanoma
[9] = system: SK-OV-3 ovarian
[10] = system: NCI-H23 lung
[11] = system: RXF 393 renal
[12] = system: UACC-257 melanoma
[13] = system: UACC-62 melanoma
[14] = system: A549 NSCLC
[15] = system: NCI-H460 lung
[16] = system: SNB-19 CNS
[17] = system: HT29 colon
[18] = system: NCI-H226 lung
[19] = system: TK-10 renal
[20] = system: BT-549 breast
[21] = system: KM12 colon
[22] = system: OVCAR-5 ovarian
[23] = system: MOLT-4 leukemia
[24] = system: HCC-2998 colon
[25] = system: SK-MEL-5 melanoma
[26] = system: NCI-H522 lung
[27] = system: SK-MEL-28 melanoma
[28] = system: SN12C renal
[29] = system: SW-620 colon
[30] = system: OVCAR-4 ovarian
[31] = system: MCF7 breast
[32] = system: HCT-116 colon
[33] = system: RPMI-8226 leukemia
[34] = system: OVCAR-8 ovarian
[35] = system: SF-268 CNS
[36] = system: CAKI-1 renal
[37] = system: ACHN renal
[38] = system: DU-145 prostate
[39] = system: OVCAR-3 ovarian
[40] = system: SNB-75 CNS
[41] = system: UO-31 renal
[42] = system: MDA-MB-435
[43] = system: HS 578T breast
[44] = system: HOP-62 NSCLC
[45] = system: CCRF-CEM leukemia
[46] = system: A498 renal
[47] = system: MDA-MB-231 breast
[48] = system: HCT-15 colon
[49] = system: SF-295 CNS
[50] = system: MALME-3M melanoma
[51] = system: PC-3 prostate
[52] = system: T-47D breast
[53] = system: SR leukemia
[54] = system: NCI/ADR-RES ovarian
[55] = system: SK-MEL-2 melanoma
[56] = system: SF-539 CNS
[57] = system: LOX IMVI melanoma

Measured: TGI

Cc1c(CN2CCOCC2)c(CN2CCOCC2)c(C)n1-c1ccc(Cl)cn1
not listed: [56] | [57]
> 100 µM: all other assays above

COc1ccc(CCn2ccc(C)n2)c(OC)c1
not listed: [3] | [18] | [24] | [26] | [33] | [46] | [53] | [55]
> 100 µM: all other assays above
